These results are taken from patent US8962660B2 (Bristol-Myers Squibb Company, priority 2013, dated 2015).

Molecules are shown by their SMILES.

The assay deals with T1, human GPR120 (Homo sapiens, UniProt Q5NUL3).
T1 construct: expressed in transfected cells; host or cells: CHOA12 cells
T1 sequence (Q5NUL3 1-361): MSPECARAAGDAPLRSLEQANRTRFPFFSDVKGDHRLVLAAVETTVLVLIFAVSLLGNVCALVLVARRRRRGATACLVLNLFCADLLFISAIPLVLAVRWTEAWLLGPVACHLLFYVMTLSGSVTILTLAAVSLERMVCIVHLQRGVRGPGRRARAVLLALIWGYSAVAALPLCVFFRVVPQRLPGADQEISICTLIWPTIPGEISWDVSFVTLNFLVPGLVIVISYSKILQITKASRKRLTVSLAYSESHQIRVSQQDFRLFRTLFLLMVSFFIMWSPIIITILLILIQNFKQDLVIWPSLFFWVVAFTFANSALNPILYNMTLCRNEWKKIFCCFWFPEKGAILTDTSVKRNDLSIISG
The experiment in a line: GPR120 pERK AlphaScreen SureFire assay (human). The note with it: CHO cells stably transfected with short form of human GPR120. The class given is cell-based. From the text:
GPR120 activity was monitored by measuring phosphorylation of ERK (pERK), since G protein receptors are known to activate the ERK signaling cascade either directly and/or through recruitment of arrestin that serves as a scaffold for downstream signaling events.
GPR120 pERK AlphaScreen SureFire Assay
The human and mouse GPR120-mediated intracellular phosphorylated ERK assays were established using CHOA12 cells stably transfected with the short form of human or mouse GPR120 receptor. Cells were cultured in growth medium consisting of F-12 media (Invitrogen Cat. #11765) with 5% Charcoal/Dextran FBS (Invitrogen Cat. #12676-029), 500 μg/mL GENETICIN® (Life Technologies Cat. #10131-027) and 250 μg/mL Zeocin (Invitrogen Cat. #R250-01). Cells were cryo preserved at a concentration of 2×10^7 cells/mL, in 90% Charcoal/Dextran FBS and 10% DMSO, and frozen in liquid nitrogen at a low passage number.
For the pERK assay, 2×10^7 cells/mL cryopreserved human and mouse cells were thawed rapidly in a 37° C. water bath and added to a T-225 flask containing 50 mL growth medium. The flasks were placed in a tissue culture incubator overnight (37° C., 5% CO2). The next day, cells were harvested with trypsin (Gibco Cat. #25300-054), resuspended in serum-containing growth medium and counted using a Cellometer and volume adjusted to a concentration of 0.6×10^6cells/mL. Cells were plated into 384-well clear bottom tissue culture plates (BD Cat. #353962) at 50 μL/well, for a density of 30,000 cells/well using a MULTIDROP® and incubated for 16-18 hours (overnight) at 37° C. with 5% CO2. The next day, cells were serum starved in 30 μL of F-12 media without any serum or antibiotics for 2 hours at 37° C.
Test compounds were 3-fold, 11-point serially diluted in DMSO in a REMP assay plate (Matrix Cat. #4307) by Tecan and 5 μL was transferred into an ECHO source plate (LABCYTE® Cat. #LC-0200). Cells were then stimulated with 50 nL of compound dilutions using ECHO liquid handler for 7 minutes at 37° C. Compounds ranged from final assay concentrations of 33.33 μM to 0.56 nM.
The media was then dumped and cells lysed with 20 μL of 1× Lysis buffer from the AlphaScreen SureFire Phospho-ERK 1/2 Kit (Perkin Elmer Cat. #6760617M). The lysis buffer was diluted 5-fold with water before use. The plate was agitated on a shaker for 10 minutes after which 2 μL was transferred into a 384-well white proxiplate (Perkin Elmer Cat. #6008289). The SureFire assay reagent mix was prepared by mixing 60 parts Reaction Buffer, 10 parts Activation Buffer, 1 part Donor Beads, 1 part Acceptor Beads (Perkin Elmer Cat. #TGRES10K). 3.5 μL/well of this reagent mix was manually added to the proxiplate with a multichannel pipettor. Plates were spun down at 1000 rpm for 2 minutes, followed by light-protected incubation at room temperature for 2 hours. The plates were read on the Alpha-technology compatible Envision multilabel plate reader using AlphaScreen protocol according to manufacturer's specifications. The agonist effect of compounds was expressed as 100×(average sample−average blank)/(average total−average blank) where sample is the luminescence activity in the presence of test compound, blank is equal to the luminescence activity in the presence of DMSO control and the total is signal induced by 50 μM linolenic acid as reference compound. Activation data for the test compound over a range of concentrations was plotted as percentage activation of the test compound (100%=maximum response). After correcting for background, EC50 values were determined The EC50 is defined as the concentration of test compound which produces 50% of the maximal response and was quantified using the 4 parameter logistic equation to fit the data.
The human and mouse GPR120-mediated intracellular phosphorylated ERK assays were also established using CHO-K1 cells stably transfected with the short form of human or mouse GPR120 receptor. […]
(In Alpha technology, singlet oxygen from a donor bead excites a nearby acceptor bead.)
For `COc1ccc(Oc2cccc(C34CCC(CCOCC(=O)O)(CC3)CO4)c2)cc1` [Example 42, 2-(2-(1-(3-(4-methoxyphenoxy)phenyl)-2-oxabicyclo [2.2.2]octan-4-yl)ethoxy)acetic acid], the EC50 (commonly the concentration that produces a half-maximal response) is 370 nM. Take `Cc1cccc(Oc2cccc(C34CCC(CCOCC(=O)O)(CC3)CO4)c2)c1` [Example 43, 2-(2-(1-(3-(m-tolyloxy)phenyl)-2-oxabicyclo [2.2.2]octan-4-yl)ethoxy)acetic acid]: the EC50 turned out to be 550 nM. This EC50 and that of the compound before are within 1.5-fold of each other.

Turning to `O=C(O)COCCC12CCC(c3cccc(Oc4cccc(Cl)c4)c3)(CC1)OC2` [Example 44, 2-(2-(1-(3-(3-chlorophenoxy)phenyl)-2-oxabicyclo[2.2.2]octan-4-yl)ethoxy) acetic acid], the EC50 is 450 nM.

Turning to `O=C(O)COCCC12CCC(c3cccc(Oc4cccc(F)c4)c3)(CC1)OC2` [Example 45, 2-(2-(1-(3-(3-fluorophenoxy)phenyl)-2-oxabicyclo[2.2.2]octan-4-yl)ethoxy) acetic acid], the EC50 was determined as 280 nM. For `N#Cc1cccc(Oc2cccc(C34CCC(CCOCC(=O)O)(CC3)CO4)c2)c1` [Example 46, 2-(2-(1-(3-(3-Cyanophenoxy)phenyl)-2-oxabicyclo[2.2.2]octan-4-yl)ethoxy)acetic acid] the value was 2570 nM. Compound `O=C(O)COCCC12CCC(c3cccc(OS(=O)(=O)C(F)(F)F)c3)(CC1)OC2` [Example 47, 2-(2-(1-(3-(Trifluoromethylsulfonyloxy)phenyl)-2-oxabicyclo[2.2.2]octan-4-yl)ethoxy)acetic acid] came in with an EC50 of 1030 nM.

Take `Cc1nc(-c2cccc(C34CCC(CCOCC(=O)O)(CC3)CO4)c2)no1` [Example 48, 2-(2-(1-(3-(5-Methyl-1,2,4-oxadiazol-3-yl)phenyl)-2-oxabicyclo[2.2.2]octan-4-yl)ethoxy)acetic acid]: the EC50 is 6760 nM. `O=C(O)COCCC12CCC(c3cccc(C(F)(F)F)c3)(CC1)OC2` [Example 49, 2-(2-(1-(3-(Trifluoromethyl)phenyl)-2-oxabicyclo[2.2.2]octan-4-yl)ethoxy)acetic acid] displayed a 50% effective concentration (EC50) of 3310 nM. `O=C(O)COCCC12CCC(c3cccc(Cc4ccccc4)c3)(CC1)OC2` [Example 50, 2-(2-(1-(3-Benzylphenyl)-2-oxabicyclo[2.2.2]octan-4-yl)ethoxy)acetic acid]: the EC50 came out at 1360 nM.

In the case of `O=C(O)COCCC12CCC(c3cccc(OCC4CCC4)c3)(CC1)OC2` [Example 51, 2-(2-(1-(3-(Cyclobutylmethoxy)phenyl)-2-oxabicyclo[2.2.2]octan-4-yl)ethoxy)acetic acid], the EC50 came out at 1090 nM. In turn, `O=C(O)COCCC12CCC(c3cccc(OCC4CCCCC4)c3)(CC1)OC2` [Example 52, 2-(2-(1-(3-(Cyclohexylmethoxy)phenyl)-2-oxabicyclo[2.2.2]octan-4-yl)ethoxy)acetic acid] showed an EC50 of 4340 nM. Under `O=C(O)COCCC12CCC(c3cc(F)cc(OCC(F)(F)F)c3)(CC1)OC2` [Example 54, 2-(2-(1-(3-Fluoro-5-(2,2,2-trifluoroethoxy)phenyl)-2-oxabicyclo[2.2.2]octan-4-yl)ethoxy)acetic acid] stands 3470 nM; under `O=C(O)COCCC12CCC(c3cc(F)cc(Oc4cccc(F)c4)c3)(CC1)OC2` [Example 55, 2-(2-(1-(3-Fluoro-5-(3-fluorophenoxy)phenyl)-2-oxabicyclo[2.2.2]octan-4-yl)ethoxy) acetic acid], 330 nM. In turn, `OCC(O)CCC12CCC(c3cccc(Oc4ccccc4)c3)(CC1)OC2` (stereo not shown) [Example 56, 4-(1-(3-Phenoxyphenyl)-2-oxabicyclo[2.2.2]octan-4-yl)butane-1,2-diol] gave a 50% effective concentration (EC50) of 610 nM.

The compound `OCCCCC12CCC(c3cccc(Oc4ccccc4)c3)(CC1)OC2` [Example 57, 4-(1-(3-Phenoxyphenyl)-2-oxabicyclo[2.2.2]octan-4-yl)butan-1-ol] displayed an EC50 of 1880 nM. In turn, `O=C(O)C1CC1CCC12CCC(c3cccc(OC4CCCCO4)c3)(CC1)OC2` (stereo not shown) [Example 61, 2-(2-(1-(3-(Tetrahydro-2H-pyran-2-yloxy)phenyl)-2-oxabicyclo[2.2.2]octan-4-yl)ethyl) cyclopropanecarboxylic acid] came in with an EC50 of 5230 nM.

`COc1ccc(Oc2cccc(C34CCC(CC[C@@H]5C[C@H]5C(=O)O)(CC3)CO4)c2)cc1` [Example 71, (1R,2R)-2-(2-(1-(3-(4-methoxy-phenoxy)phenyl)-2-oxabicyclo[2.2.2]octan-4-yl)ethyl)cyclo-propane carboxylic acid] registered an EC50 of 1170 nM. In turn, `O=C(O)[C@@H]1C[C@H]1CCC12CCC(c3cccc(Oc4cc(F)cc(F)c4)c3)(CC1)OC2` [Example 72, (1R,2R)-2-(2-(1-(3-(3,5-difluorophenoxy)phenyl)-2-oxabicyclo[2.2.2]octan-4-yl)ethyl) cyclopropanecarboxylic acid] yielded an EC50 of 490 nM. Compared with the last compound, the EC50 is about 2.4-fold lower. As to `O=C(O)[C@@H]1C[C@H]1CCC12CCC(c3cccc(Oc4ccc(F)c(F)c4)c3)(CC1)OC2` [Example 73, (1R,2R)-2-(2-(1-(3-(3,4-difluorophenoxy)phenyl)-2-oxabicyclo[2.2.2]octan-4-yl)ethyl) cyclopropanecarboxylic acid], the EC50 amounted to 540 nM. Consider `O=C(O)[C@@H]1C[C@H]1CCC12CCC(c3cccc(Oc4ccc(O)cc4)c3)(CC1)OC2` [Example 74, (1R,2R)-2-(2-(1-(3-(4-hydroxy-phenoxy)phenyl)-2-oxabicyclo[2.2.2]octan-4-yl)ethyl)cyclo-propanecarboxylic acid], for which the concentration giving a half-maximal response (EC50) stood at 2530 nM. Compound `O=C(O)COCCC12CCC(c3cccc(Oc4ccc(F)c(F)c4)c3)(CC1)OC2` [Example 75, 2-(2-(1-(3-(3,4-difluoro-phenoxy)phenyl)-2-oxabicyclo[2.2.2]octan-4-yl)ethoxy)acetic acid] gave an EC50 of 400 nM. For the compound `O=C(O)COCCC12CCC(c3cccc(Oc4cc(F)cc(F)c4)c3)(CC1)OC2` [Example 76, 2-(2-(1-(3-(3,5-difluorophenoxy)phenyl)-2-oxabicyclo[2.2.2]octan-4-yl)ethoxy)acetic acid], it took 420 nM to reach a half-maximal effect (EC50). As for `Cc1ccc(Oc2cccc(C34CCC(CCOCC(=O)O)(CC3)CO4)c2)cc1F` [Example 77, 2-(2-(1-(3-(3-fluoro-4-methylphenoxy)phenyl)-2-oxabicyclo[2.2.2]octan-4-yl)ethoxy)acetic acid], it took 230 nM to reach a half-maximal effect (EC50). For `Cc1cc(Oc2cccc(C34CCC(CCOCC(=O)O)(CC3)CO4)c2)ccc1F` [Example 78, 2-(2-(1-(3-(4-fluoro-3-methylphenoxy)phenyl)-2-oxabicyclo[2.2.2]octan-4-yl)ethoxy)acetic acid] the value was 490 nM; for `O=C(O)COCCC12CCC(c3cc(F)cc(Oc4ccc(F)c(F)c4)c3)(CC1)OC2` [Example 79, 2-(2-(1-(3-(3,4-difluorophenoxy)-5-fluorophenyl)-2-oxabicyclo [2.2.2]octan-4-yl)ethoxy) acetic acid], 550 nM.
